The record followed here is ChEMBL document CHEMBL3526109 (Drug Metab Dispos, 2011).

Common to all, as to conditions: in vivo
Data set [1] is described as follows: Drug excretion in cynomolgus monkey urine treated with [14C]brivanib alaninate at 10 mg/kg, po administered as single dose via gavage by HPLC analysis. Type of data set: ADME, organism-based, Macaca fascicularis.
A short description of data set [2]: Drug excretion in bile duct-cannulated cynomolgus monkey bile treated with [14C]brivanib alaninate at 10 mg/kg, po administered as single dose via gavage by HPLC analysis. Format: ADME, organism-based, Macaca fascicularis.
Data set [3] can be described thus: Drug excretion in Sprague-Dawley rat urine treated with [14C]brivanib alaninate at 100 mg/kg, po administered as single dose via gavage by HPLC analysis. Type of data set: ADME, organism-based.
A short description of data set [4]: Drug excretion in human urine treated with [14C]brivanib alaninate at 800 mg, po administered as single dose […] by HPLC analysis. Format: ADME, organism-based.
Data set [5] is described as follows: Drug excretion in bile duct-cannulated rat bile treated with [14C]brivanib alaninate at 100 mg/kg, po administered as single dose via gavage by HPLC analysis. Type of data set: ADME, organism-based.
Data set [6] can be described thus: Drug excretion in human feces treated with [14C]brivanib alaninate at 800 mg, po administered as single dose […] by HPLC analysis. Format: ADME, organism-based.
Data set [7] in a line: Drug excretion in Sprague-Dawley rat feces treated with [14C]brivanib alaninate at 100 mg/kg, po administered as single dose via gavage by HPLC analysis. Format: ADME, organism-based.
Data set [8] is described as follows: Drug excretion in cynomolgus monkey feces treated with [14C]brivanib alaninate at 10 mg/kg, po administered as single dose via gavage by HPLC analysis. Format: ADME, organism-based, Macaca fascicularis.
In data set [9] the test system is Plasma. Put plainly: Drug level in human plasma assessed as compound formation treated with [14C]brivanib alaninate at 800 mg, po administered as single dose via gavage measured after 8 hrs by HPLC analysis. Format: ADME, organism-based.
For data set [10], the system named is Plasma. Put plainly: Drug level in cynomolgus monkey plasma assessed as compound formation treated with [14C]brivanib alaninate at 10 mg/kg, po administered as single dose via gavage measured after 1 hr by HPLC analysis. Type of data set: ADME, organism-based, Macaca fascicularis.
Data set [11] concerns Plasma. Put plainly: Drug level in human plasma assessed as compound formation treated with [14C]brivanib alaninate at 800 mg, po administered as single dose via gavage measured after 4 hrs by HPLC analysis. Format: ADME, organism-based.
Data set [12] concerns Plasma. Put plainly: Drug level in human plasma assessed as compound formation treated with [14C]brivanib alaninate at 800 mg, po administered as single dose via gavage measured after 1 hr by HPLC analysis. Format: ADME, organism-based.
Data set [13] has as its system Plasma. Put plainly: Drug level in human plasma assessed as compound formation treated with [14C]brivanib alaninate at 800 mg, po administered as single dose via gavage measured after 12 hrs by HPLC analysis. Type of data set: ADME, organism-based.
The test system of data set [14] is Plasma. Put plainly: Drug level in Sprague-Dawley rat plasma assessed as compound formation treated with [14C]brivanib alaninate at 100 mg/kg, po administered as single dose via gavage measured after 2 hrs by HPLC analysis. Type of data set: ADME, organism-based.
The test system of data set [15] is Plasma. Briefly: Drug level in Sprague-Dawley rat plasma assessed as compound formation treated with [14C]brivanib alaninate at 100 mg/kg, po administered as single dose via gavage measured after 1 hr by HPLC analysis. Format: ADME, organism-based.
Data set [16] has as its system Plasma. Briefly: Drug level in cynomolgus monkey plasma assessed as compound formation treated with [14C]brivanib alaninate at 10 mg/kg, po administered as single dose via gavage measured after 6 hrs by HPLC analysis. Format: ADME, organism-based, Macaca fascicularis.
The subject of data set [17] is Plasma. Briefly: Drug level in human plasma assessed as compound formation treated with [14C]brivanib alaninate at 800 mg, po administered as single dose via gavage measured after 2 hrs by HPLC analysis. Type of data set: ADME, organism-based.
In data set [18] the test system is Plasma. Put plainly: Drug level in cynomolgus monkey plasma assessed as compound formation treated with [14C]brivanib alaninate at 10 mg/kg, po administered as single dose via gavage measured after 12 hrs by HPLC analysis. Format: ADME, organism-based, Macaca fascicularis.
Data set [19] relates to Plasma. Briefly: Drug level in Sprague-Dawley rat plasma assessed as compound formation treated with [14C]brivanib alaninate at 100 mg/kg, po administered as single dose via gavage measured after 6 hrs by HPLC analysis. Type of data set: ADME, organism-based.
For data set [20], the system named is Plasma. Put plainly: Drug level in cynomolgus monkey plasma assessed as compound formation treated with [14C]brivanib alaninate at 10 mg/kg, po administered as single dose via gavage measured after 4 hrs by HPLC analysis. Type of data set: ADME, organism-based, Macaca fascicularis.
The test system of data set [21] is Plasma. Briefly: Drug level in cynomolgus monkey plasma assessed as compound formation treated with [14C]brivanib alaninate at 10 mg/kg, po administered as single dose via gavage measured after 2 hrs by HPLC analysis. Format: ADME, organism-based, Macaca fascicularis.
For data set [22], the system named is Rattus norvegicus. Briefly: Drug uptake in Sprague-Dawley rat plasma treated with [14C]brivanib alaninate assessed as AUC (0 to 6 hrs) of total radio activity at 100 mg/kg, po administered as single oral dose by HPLC analysis. Format: ADME, organism-based.
Data set [23] has as its system Homo sapiens. Put plainly: AUC (0 to 12 hrs) human plasma treated with [14C]brivanib alaninate at 800 mg, po administered as single oral dose by HPLC analysis. Type of data set: ADME, organism-based.
In data set [24] the test system is Cynomolgus monkey. Put plainly: AUC (0 to 12 hrs) cynomolgus monkey plasma treated with [14C]brivanib alaninate at 10 mg/kg, po administered as single oral dose by HPLC analysis. Format: ADME, organism-based, Macaca fascicularis.
Data set [25] concerns Homo sapiens. Put plainly: Drug uptake in human plasma treated with [14C]brivanib alaninate assessed as AUC (0 to 12 hrs) of total radio activity at 800 mg, po administered as single oral dose by HPLC analysis. Type of data set: ADME, organism-based.
Data set [26] has as its system Rattus norvegicus. Put plainly: AUC (0 to 6 hrs) Sprague-Dawley rat plasma treated with [14C]brivanib alaninate at 100 mg/kg, po administered as single oral dose by HPLC analysis. Format: ADME, organism-based.
For data set [27], the system named is Cynomolgus monkey. Put plainly: Drug uptake in cynomolgus monkey plasma treated with [14C]brivanib alaninate assessed as AUC (0 to 12 hrs) of total radio activity at 10 mg/kg, po administered as single oral dose by HPLC analysis. Type of data set: ADME, organism-based, Macaca fascicularis.
The nature of data set [28]: Drug level in Sprague-Dawley rat urine treated with [14C]brivanib alaninate at 100 mg/kg, po administered as single dose via gavage by mass spectrometry. Type of data set: ADME, organism-based.

In the case of `Cc1c(OS(=O)(=O)O)cn2ncnc(Oc3ccc4[nH]c(CO)cc4c3F)c12`, the Compound recovery entry is “metabolite_not_detected” in data set [1]; 0.4% in data set [2]; “metabolite_not_detected” in data set [3]; “metabolite_not_detected” in data set [4]; “metabolite_not_detected” in [5]; “metabolite_not_detected” in data set [6]. In addition, the Compound recovery entry in [7] and in data set [8] was “metabolite_not_detected” throughout.
As to `Cc1cc2c(F)c(Oc3ncnn4cc(O)c(C)c34)ccc2[nH]1`, the Compound recovery result in data set [1] is reported as “metabolite_not_detected”; in the data set with Plasma [9], “metabolite_not_detected”; in [2] it was 0.4%; in the data set with Plasma [10] it was “metabolite_not_detected”; in the data set with Plasma [11], “metabolite_not_detected”; in data set [4], “metabolite_not_detected”. For the same compound, the Compound recovery in data set [5] is 10.8%; in the data set on Plasma [12] it was “metabolite_not_detected”; in data set [6], “metabolite_not_detected”; in the data set on Plasma [13], “metabolite_not_detected”; with Plasma [14], 1.9%; in data set [7] it was 42.8%. Also, the Compound recovery with Plasma [15] is 2.4%; with Plasma [16], “metabolite_not_detected”; in the data set with Plasma [17], “metabolite_not_detected”; with Plasma [18], “metabolite_not_detected”; in data set [8], 1.8%; in the data set with Plasma [19], 1.7%. Moreover, the Compound recovery result in the data set with Plasma [20] and in the data set on Plasma [21] was “metabolite_not_detected” in each case.
On to `Cc1c(O)cn2ncnc(Oc3ccc4[nH]c(CO)cc4c3F)c12`, for which the Compound recovery result in data set [1] is reported as “metabolite_not_detected”; in data set [2] it was “metabolite_not_detected”; in data set [3] it was 0.4%; in [4] it was “metabolite_not_detected”; in data set [5] it was “metabolite_not_detected”; in [6] it was “metabolite_not_detected”. Further, the Compound recovery in [7] is listed as 1.5%; in data set [8], “metabolite_not_detected”.
As for `Cc1cc2c(F)c(Oc3ncnn4cc(OS(=O)(=O)O)c(C)c34)ccc2[nH]1`, the Compound recovery turned out to be 0.7% in data set [1]; 7.6% in the data set with Plasma [9]; 1.9% in data set [2]; 2.9% in the data set on Plasma [10]; 4.4% in the data set with Plasma [11]; 2.7% in data set [3]. The Compound recovery entry is reported as “metabolite_not_detected” in data set [4]; 25.4% in [5]; 8.8% in the data set with Plasma [12]; “metabolite_not_detected” in data set [6]; 8.9% in the data set on Plasma [13]; 26.8% with Plasma [14]. The Compound recovery was 4.6% in data set [7]; 30.7% in the data set on Plasma [15]; 9.1% in the data set with Plasma [16]; 6.7% in the data set on Plasma [17]; 5.7% with Plasma [18]; “metabolite_not_detected” in data set [8]. Further, the results for the Compound recovery in the data set on Plasma [19], with Plasma [20] and with Plasma [21] were 20.9%, 9.4% and 5.9%, respectively. For the same compound, the entries for the “AUC metabolite/AUC radiolabel” value with Rattus norvegicus [22], with Homo sapiens [25] and with Cynomolgus monkey [27] were 26.8%, 5.8% and 8.1%, respectively. Also, the AUC with Homo sapiens [23] is reported as 3835.4 ugequiv/l.hr; in the data set with Cynomolgus monkey [24] it was 5622.3 ugequiv/l.hr; in the data set with Rattus norvegicus [26], 37494.4 ugequiv/l.hr.
Take `Cc1cc2c(F)c(Oc3ncnn4cc(O[C@@H]5O[C@H](C(=O)O)[C@@H](O)[C@H](O)[C@H]5O)c(C)c34)ccc2[nH]1`: the Compound recovery in data set [1] is reported as 0.8%; in the data set on Plasma [9], 2%; in [2], “metabolite_not_detected”; in the data set with Plasma [10], “metabolite_not_detected”; in the data set with Plasma [11] it was “metabolite_not_detected”; in data set [4], 0.8%. Moreover, the Compound recovery in data set [5] is recorded as 27.4%; in the data set with Plasma [12] it was 0.8%; in [6] it was “metabolite_not_detected”; in the data set on Plasma [13] it was 1.2%; in the data set on Plasma [14] it was 6.5%; in data set [7] it was “metabolite_not_detected”. Also, the Compound recovery with Plasma [15] is 5.1%; with Plasma [16] it was “metabolite_not_detected”; in the data set on Plasma [17] it was 3%; in the data set with Plasma [18], “metabolite_not_detected”; in data set [8], “metabolite_not_detected”; with Plasma [19], 9.1%. Also, the Compound recovery entry in the data set with Plasma [20] and in the data set with Plasma [21] was “metabolite_not_detected” each time.
As for `Cc1c(OS(=O)(=O)O)cn2ncnc(Oc3ccc4[nH]c(C(=O)O)cc4c3F)c12`, the Compound recovery in [1] amounted to 0.3%; in the data set on Plasma [9] it was 23%; in data set [2] it was 1.4%; with Plasma [10] it was 3.3%; with Plasma [11], 20%; in data set [3], 5.1%. Also, the Compound recovery is reported as 3.3% in [4]; 4% in data set [5]; “metabolite_not_detected” in the data set on Plasma [12]; “metabolite_not_detected” in data set [6]; 24.3% in the data set on Plasma [13]; 22.1% in the data set on Plasma [14]. Besides, the Compound recovery entry was “metabolite_not_detected” in [7]; 18.2% in the data set with Plasma [15]; 9.1% in the data set on Plasma [16]; 11.3% in the data set on Plasma [17]; 12.5% in the data set on Plasma [18]; “metabolite_not_detected” in [8]. Moreover, the Compound recovery turned out to be 20% in the data set on Plasma [19], 4.6% in the data set on Plasma [20] and 3% in the data set on Plasma [21]. Besides, the results for the “AUC metabolite/AUC radiolabel” value in the data set on Rattus norvegicus [22], in the data set with Homo sapiens [25] and in the data set with Cynomolgus monkey [27] were 21.1%, 14.7% and 6.6%, respectively. Moreover, the AUC in the data set on Homo sapiens [23] worked out at 9668.9 ugequiv/l.hr; with Cynomolgus monkey [24], 4597.3 ugequiv/l.hr; in the data set with Rattus norvegicus [26], 29545.4 ugequiv/l.hr.
With `Cc1c(O)cn2ncnc(Oc3ccc4[nH]c(C(=O)O)cc4c3F)c12`, the Compound recovery result in [1] is listed as “metabolite_not_detected”; in data set [2] it was “metabolite_not_detected”; in data set [4] it was “metabolite_not_detected”; in [5] it was 1.8%; in [6], “metabolite_not_detected”; in data set [28] it was “metabolite_detected”. Moreover, the Compound recovery entry in data set [7] and in data set [8] was “metabolite_not_detected” throughout.
